Experimental findings from US20260248789A1, “CONTROLLED RELEASE PDE10A FORMULATIONS” (Merck Sharp & Dohme LLC, priority 2023, published 2026) are described below.

Structures are written as SMILES.

Series [1] in a line: Study 7: tolerability in healthy subjects 8-72 mg. The format is in vivo, human. As to conditions: Study 7, healthy subjects (n=12) dosed 8 mg to 72 mg; up to and including doses of 48 mg. An excerpt: Plasma exposures in this study were generally similar those observed in the other multiple dose studies reported here (data not shown).
The nature of series [2]: Study 2: multiple-dose titration study, PK of CR formulation. The format is in vivo. As to conditions: human, plasma, oral, highest dose level in Study 2 (48 mg, CR formulation, schizophrenia). The procedure: (§1) Study 2 was designed similarly to Study 1; participants were administered CR Release formulations of Compound A/placebo as monotherapy in participants with schizophrenia (n=16) and healthy participants (n=16), or as adjunctive therapy (n=17) (schizophrenia participants only) and titrated from 4 mg to 24 mg (see Table 3 for illustration of PK at the 24 mg dose level as monotherapy in healthy adults). In Study 2 an additional panel of participants with schizophrenia was administered CR formulations of Compound A/placebo as monotherapy and titrated from 8 mg to 48 mg (n=26)(see Table 4 for illustration of PK at the 48 mg dose level).

The nature of series [3]: Study 3: tolerability / adverse events of CR formulation. Format: in vivo, human. The procedure:
In Study 3, one panel of participants [(n=8)—monotherapy in adult participants with schizophrenia] were titrated from 16 mg to 24 mg or placebo, while in another panel participants (n=18) received 24 mg/placebo without titration (Table 5) to determine if titration was required for tolerability.
There were 2 events of transient dystonia following the first dose of 16 mg, but both events responded to treatment and participants continued dosing without recurrence. […] Other adverse events (i.e., depression, anxiety and stress) across all three studies were mostly mild or moderate in intensity and there was no clear dose-related increase in specific events (Table 6).

Series [4] can be described thus: Study 2: tolerability of CR formulation. The format is in vivo, human. As to conditions: Study 2, CR formulation titrated from 4 mg to 24 mg and from 8 mg to 48 mg. The procedure:
as §1

Setting [5] is: 24 mg (Day 1-7), Panel B, participants with schizophrenia, 14 in population.

As to `Cc1ccc([C@H]2C[C@@H]2COc2cc(NCc3nnc(C)s3)nc(C)n2)nc1` [Compound A, 2-methyl-N-((5-methyl-1,3,4-thiadiazol-2-yl)methyl)-6-(((1S,2S)-2-(5-methylpyridin-2-yl)cyclopropyl)methoxy)pyrimidin-4-amine], the dystonia result in series [1] is “no dystonia was reported”. Besides, the Cmax (commonly the highest concentration seen after dosing) in series [2] was roughly 1800 nM. Moreover, the concentration at 24 h in series [2] (read-out: C24) was roughly 1200 nM. Further, in series [3] (setting [5]), the “Alanine aminotransferase increased, (%)” value is reported as “(7.1) %”; the “Decreased appetite, (%)” value is “(7.1) %”; the “Hypertonia, (%)” value was “(7.1) %”; the “Investigations (non-serious related AE), (%)” value is “(7.1) %”. In addition, in series [3] (setting [5]), the “Metabolism and nutrition disorders, (%)” value is listed as “(7.1) %”; the “Musculoskeletal and connective tissue disorders, (%)” value is given as “(7.1) %”; the “Musculoskeletal stiffness, (%)” value was “(7.1) %”; the “Nervous system disorders, (%)” value was “(21.4) %”. In series [3] (setting [5]), the “Participants with no Non-Serious Related Adverse Event, (%)” value is listed as “(64.3) %”; the “Participants with one or more Non-Serious Related Adverse Event, (%)” value is given as “(35.7) %”; the “Somnolence, (%)” value is reported as “(14.3) %”. For the same molecule, the tolerability entry in series [3] (Study 3, dosing initiated at 16 mg or 24 mg with no titration) was “generally well tolerated”. Besides, the dystonia result in series [3] (Study 3, dosing initiated at 24 mg without titration) is given as “No events of dystonia were reported”. Also, the “events of transient dystonia” value in series [3] (Study 3, following the first dose of 16 mg) is listed as 2. Also, the dystonia entry in series [4] is recorded as “no Compound A-related dystonia was observed”.
